Experimental data from US8822430B2 (Gilead Sciences, Inc., priority 2009, dated 2014).

These molecules were tested on HCV 1b RLuc cells (dicistronic genotype 1b Con1 replicon) (assay: Renilla luciferase (RLuc)-based HCV replicon reporter assay). Conditions: Hepatitis C virus, 72 h, HCV 1b RLuc replicon, 72 hours; read-out: Activity (antiviral potency [EC50]).
Format: cell-based, HCV genotype 1b
Description: Antiviral potency (EC50) was determined using a Renilla luciferase (RLuc)-based HCV replicon reporter assay. To perform the assay, HCV 1b RLuc cells (harboring a dicistronic genotype 1b Con1 replicon that encodes a RLuc reporter), or HCV 1a RLuc cells (harboring a dicistronic genotype 1a H77 replicon that encodes a RLuc reporter), were dispensed into 384-well plates. Compounds were re-suspended in DMSO at a concentration of 10 mM and serially diluted in DMSO using an automated pipeting instrument. Serially diluted compounds were mixed with cell culture media and added to the seeded cells. DMSO was used as a negative (solvent) control, and the protease inhibitor ITMN-191 was included at a concentration >100×EC50 as a positive control. 72 hours later, cells were lysed and Renilla luciferase activity quantified as recommended by the manufacturer (Promega-Madison, Wis.). Non-linear regression was performed to calculate EC50 values.
Biological data (antiviral potency [EC50] was determined using a Renilla luciferase (RLuc)-based HCV replicon reporter assay—HCV 1b RLuc) for representative compounds of the invention is provided in the following table. These compounds can be prepared using procedures similar to those described above.
Molecule `COC(=O)N[C@H](C(=O)N1C[C@@H](C#N)C[C@H]1c1ncc(-c2ccc(-c3ccc4cc(-c5cnc([C@@H]6CC7(CC7)CN6C(=O)[C@@H](NC(=O)OC)C(C)C)[nH]5)ccc4c3)cc2)[nH]1)C(C)C` has an EC50 of 0.0069 nM.
`COC(=O)N[C@H](C(=O)N1CCC[C@H]1c1ncc(-c2ccc(-c3ccc(-c4ccc5nc([C@@H]6CCCN6C(=O)[C@@H](NC(=O)OC)C(C)C)[nH]c5c4)s3)cc2)[nH]1)C(C)C` was tested, and the EC50 was 0.003 nM.
With `CC[C@H](NC(=O)OC)C(=O)N1C[C@@H](C#N)C[C@H]1c1ncc(-c2ccc(-c3ccc4cc(-c5cnc([C@@H]6CC7(CC7)CN6C(=O)[C@@H](NC(=O)OC)C(C)C)[nH]5)ccc4c3)cc2)[nH]1` the EC50 was 0.0176 nM.
`COC(=O)N[C@H](C(=O)N1CCC[C@H]1c1ncc(-c2ccc3cc(-c4ccc(-c5ccc6nc([C@@H]7[C@H]8CC[C@H](C8)N7C(=O)[C@@H](NC(=O)OC)C(C)C)[nH]c6c5)cc4)ccc3c2)[nH]1)C(C)C` was tested, and the EC50 was 0.077 nM.
`COC(=O)N[C@H]1CC[C@H]2CC[C@@H](c3ncc(-c4ccc(-c5ccc(-c6cnc([C@@H]7CCCN7C(=O)[C@@H](NC(=O)OC)C(C)C)[nH]6)cc5)cc4)[nH]3)N2C1=O` gave an EC50 of 0.156 nM.
`COC(=O)N[C@H](C(=O)N1CCC[C@H]1c1ncc(-c2ccc3c(c2)S(=O)(=O)c2ccc(-c4cnc([C@@H]5CCCN5C(=O)[C@@H](NC(=O)OC)C(C)C)[nH]4)cc2S3(=O)=O)[nH]1)C(C)C` was tested, and the EC50 was 10.3 nM.
Molecule `COC(=O)N[C@H](C(=O)N1CCC[C@H]1c1ncc(-c2ccc(-n3ccc(-c4cnc([C@@H]5CCCN5C(=O)[C@@H](NC(=O)OC)C(C)C)[nH]4)cc3=O)cc2)[nH]1)C(C)C` has an EC50 of 38.1 nM.
`COC(=O)N[C@H](C(=O)N1CCC[C@H]1c1ncc(-c2ccc3cc(-c4ccc(-c5cnc([C@@H]6C[C@H](CNS(C)(=O)=O)CN6C(=O)[C@@H](NC(=O)OC)C(C)C)[nH]5)cc4)ccc3c2)[nH]1)C(C)C` was tested, and the EC50 was 0.12 nM.
With `COC(=O)N[C@H](C(=O)N1CCC[C@H]1c1ncc(-c2ccc3cc(-c4ccc(-c5cnc([C@@H]6CCCN6C(=O)[C@H](NC(=O)OC)C6CCCCC6)[nH]5)cc4)ccc3c2)[nH]1)C(C)C` the EC50 was 0.0972 nM.
`COC(=O)NC(C(=O)N1CCC[C@H]1c1ncc(-c2ccc3cc(-c4ccc(-c5cnc([C@@H]6C[C@H](OC(F)F)CN6C(=O)[C@@H](NC(=O)OC)C(C)C)[nH]5)cc4)ccc3c2)[nH]1)c1ccccc1` (some centres unmarked) was tested, and the EC50 was 0.0171 nM.
Molecule `COC(=O)N[C@H](C(=O)N1CCC[C@H]1c1ncc(-c2ccc3cc(-c4ccc(-c5cnc([C@@H]6CCCN6C(=O)[C@H](NC(=O)OC)c6cccs6)[nH]5)cc4)ccc3c2)[nH]1)C(C)C` has an EC50 of 0.0262 nM.
Work on `COC(=O)N[C@H](C(=O)N1CCC[C@H]1c1ncc(-c2ccc(-c3ccc(-c4cnc([C@@H]5CCCN5C(=O)[C@@H](NC(=O)OC)C(C)C)[nH]4)cc3C#N)cc2)[nH]1)C(C)C` yielded an EC50 of 0.0158 nM.
`COC(=O)NC(C(=O)N1CCC[C@H]1c1ncc(-c2ccc(-c3ccc(-c4cnc([C@@H]5CCCN5C(=O)[C@@H](NC(=O)OC)C(C)C)[nH]4)cc3)c3ccccc23)[nH]1)C(C)C` (some centres unmarked) showed an EC50 of 0.0067 nM.
Work on `COC(=O)N[C@H](C(=O)N1CCC[C@H]1c1ncc(-c2ccc(-c3ccc4cc(-c5ccc6nc([C@@H]7[C@H]8CC[C@H](C8)N7C(=O)[C@@H](NC(=O)OC)C(C)C)[nH]c6c5)ccc4c3)cc2)[nH]1)C(C)C` yielded an EC50 of 0.0898 nM.
With `COC(=O)N[C@@H](C)C(=O)N1CCC[C@H]1c1ncc(-c2ccc3c(c2)sc2cc(-c4cnc([C@@H]5[C@H]6CC[C@H](C6)N5C(=O)[C@H](C)NC(=O)OC)[nH]4)ccc23)[nH]1` the EC50 was 0.0185 nM.
In the case of `COC(=O)N[C@@H](CCC#N)C(=O)N1CC2(CC2)C[C@H]1c1ncc(-c2ccc3cc(-c4ccc(-c5cnc([C@@H]6[C@H]7CC[C@H](C7)N6C(=O)[C@@H](NC(=O)OC)C(C)C)[nH]5)cc4)ccc3c2)[nH]1`, the EC50 is reported as 0.0159 nM.
`COC(=O)N[C@H](C(=O)N1[C@@H]2CC[C@@H](C2)[C@H]1c1ncc(-c2ccc(-c3ccc4cc(-c5cnc([C@@H]6CC7(CC7)CN6C(=O)[C@@H](NC(=O)OC)C(C)OC)[nH]5)ccc4c3)cc2)[nH]1)C(C)C` (some centres unmarked) was tested, and the EC50 was 0.0077 nM.
